Test results published in patent US10227331B2 (priority 2015, dated 2019).
pIC50: −log10 of the molar value.

How the values were obtained:
[1] = system: P. aeruginosa expressing IMP-1, efflux+ (MB9798); type: cell-based, Pseudomonas aeruginosa; details: for P. aeruginosa expressing IMP-1, efflux+ (MB9798) MITC95: imipenem at 2 μg/mL, in the presence of a class A, C, D serine β-lactamase inhibitor closely related to relebactam; for Efflux ratio: ratio MITC95 PA_9798/MITC95 PA_9799
From the text: (§1) The strain background is Pseudomonas aeruginosa PAO1.

VIM-1 = VIM-1 (Pseudomonas aeruginosa (strain ATCC 15692 / DSM 22644 / CIP 104116 / JCM 14847 / LMG 12228 / 1C / PRS 101 / PAO1), UniProt A0A0F7KYQ8); experiment: biochemical; details: CCF2-FA substrate, 2 hours at 25° C
Method in brief: (§2)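 Test compound, enzyme and the FRET cephalosporin substrate CCF2-FA are incubated together for 2 hours at 25° C. Cleavage is followed by fluorescence, and IC50 values are derived from semi-logarithmic inhibition curves fitted with a 4-parameter model.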

IMP-1 = IMP-1 (Serratia marcescens, UniProt P52699); experiment: biochemical; type: biochemical; details: CCF2-FA substrate, 2 hours at 25° C; read-out: IMP-1 IC50
Sequence of IMP-1 (P52699 whole entry, looked up, species assumed): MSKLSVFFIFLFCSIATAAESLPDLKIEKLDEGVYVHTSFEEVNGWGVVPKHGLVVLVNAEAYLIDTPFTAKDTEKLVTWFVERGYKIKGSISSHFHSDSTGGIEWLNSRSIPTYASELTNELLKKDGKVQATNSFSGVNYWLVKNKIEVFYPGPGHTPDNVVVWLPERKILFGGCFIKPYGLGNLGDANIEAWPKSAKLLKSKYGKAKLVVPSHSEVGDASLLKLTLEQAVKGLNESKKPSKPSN
Method in brief: as §2

NDM-1 = NDM-1 (Klebsiella pneumoniae, UniProt C7C422); experiment: biochemical; type: biochemical; details: CCF2-FA substrate, 2 hours at 25° C; read-out: NDM-1 IC50
Sequence of NDM-1 (C7C422 whole entry, looked up, species assumed): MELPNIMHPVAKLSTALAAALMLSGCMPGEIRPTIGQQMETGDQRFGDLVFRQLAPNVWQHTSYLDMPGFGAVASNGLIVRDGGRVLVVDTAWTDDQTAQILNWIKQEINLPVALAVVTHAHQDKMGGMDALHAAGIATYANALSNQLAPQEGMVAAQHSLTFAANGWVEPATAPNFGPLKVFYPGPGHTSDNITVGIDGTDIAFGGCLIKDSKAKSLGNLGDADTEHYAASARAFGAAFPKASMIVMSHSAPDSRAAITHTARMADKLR
Method in brief: as §2

[2] = system: P. aeruginosa expressing IMP-1, efflux− (MB9799); experiment: Efflux: concentration of MBL inhibitor which restores susceptibility to imipenem; type: cell-based, Pseudomonas aeruginosa; details: imipenem at 2 μg/mL, in the presence of a class A, C, D serine β-lactamase inhibitor closely related to relebactam
From the text: as §1

[3] = system: Klebsiella pneumoniae expressing VIM-1 (IHMA599644); type: cell-based; details: with imipenem 1 μg/ml; 95% inhibition of bacterial growth
Method in brief: (§3)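 Clinical strains grown overnight on blood agar, then diluted 1:100 in 1.1× CAMHB and exposed to test compound with imipenem at 1 μg/ml. Incubation was 22–24 h at 35° C; growth was read by absorbance to find the compound concentration restoring imipenem susceptibility.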

[4] = system: Serratia marcescens expressing IMP-1 (CL5741); type: cell-based; details: with imipenem 1 μg/ml; 95% inhibition of bacterial growth
Method in brief: as §3

[5] = system: Escherichia coli expressing NDM-1 (CLB30005, CLB30016); type: cell-based; details: with imipenem 1 μg/ml; 95% inhibition of bacterial growth
Method in brief: as §3

Nc1nc2c(-c3ccc(S(=O)(=O)C4CNC4)c(S(N)(=O)=O)c3-c3nn[nH]n3)ccc(C(=O)O)c2s1 [Example 38, 2-amino-4-(4-(azetidin-3-ylsulfonyl)-3-sulfamoyl-2-(2H-tetrazol-5-yl)phenyl)benzo[d]thiazole-7-carboxylic Acid] was tested, and the “P. aeruginosa expressing IMP-1, efflux+ (MB9798) MITC95” value [1] was 9.375 µM, the Efflux ratio [1] was 1.50 and the pIC50 (VIM-1) was 9.47. For the same molecule, the pIC50 (IMP-1) was 9.90, the pIC50 (NDM-1) was 10.54 and the “P. aeruginosa expressing IMP-1, efflux− (MB9799) MITC95” value [2] was 6.25 µM. For the same molecule, the “Klebsiella pneumoniae expressing VIM-1 (IHMA599644) MITC95” value [3] was 25 µM, the “Serratia marcescens expressing IMP-1 (CL5741) MITC95” value [4] was 12.5 µM and the “Escherichia coli expressing NDM-1 (CLB30016) MITC95” value [5] was 31.25 µM.
With NC(=O)c1ccc(-c2ccc(S(=O)(=O)C3CNC3)c(S(N)(=O)=O)c2-c2nn[nH]n2)c2nc(N)sc12 [Example 39, 2-amino-4-(4-(azetidin-3-ylsulfonyl)-3-sulfamoyl-2-(2H-tetrazol-5-yl)phenyl)benzo[d]thiazole-7-carboxamide] the “P. aeruginosa expressing IMP-1, efflux+ (MB9798) MITC95” value [1] was 0.7813 µM, the Efflux ratio [1] was 0.50 and the pIC50 (VIM-1) was 9.89. The pIC50 (IMP-1) was 9.56, the pIC50 (NDM-1) was 10.52 and the “P. aeruginosa expressing IMP-1, efflux− (MB9799) MITC95” value [2] was 1.563 µM. The “Klebsiella pneumoniae expressing VIM-1 (IHMA599644) MITC95” value [3] was 3.125 µM, the “Serratia marcescens expressing IMP-1 (CL5741) MITC95” value [4] was 3.125 µM and the “Escherichia coli expressing NDM-1 (CLB30016) MITC95” value [5] was 1.563 µM.
Nc1nc2cc(-c3ccc(S(=O)(=O)C4CNC4)c(S(N)(=O)=O)c3-c3nn[nH]n3)ccc2[nH]1 [Example 40, 3-(2-amino-1H-benzo[d]imidazol-5-yl)-6-(azetidin-3-ylsulfonyl)-2-(2H-tetrazol-5-yl)benzenesulfonamide] was tested, and the “P. aeruginosa expressing IMP-1, efflux+ (MB9798) MITC95” value [1] was 3.125 µM, the Efflux ratio [1] was 5.61 and the pIC50 (VIM-1) was 9.46. The pIC50 (IMP-1) was 8.70, the pIC50 (NDM-1) was 9.39 and the “P. aeruginosa expressing IMP-1, efflux− (MB9799) MITC95” value [2] was 0.5573 µM. For the same molecule, the “Klebsiella pneumoniae expressing VIM-1 (IHMA599644) MITC95” value [3] was 1.375 µM, the “Serratia marcescens expressing IMP-1 (CL5741) MITC95” value [4] was 0.5573 µM and the “Escherichia coli expressing NDM-1 (CLB30016) MITC95” value [5] was 0.4453 µM.
Nc1nc2cccc(-c3ccc(S(=O)(=O)C4CCNCC4)c(S(N)(=O)=O)c3-c3nn[nH]n3)c2[nH]1 [Example 42, 3-(2-amino-3H-benzo[d]imidazol-4-yl)-6-(piperidin-4-ylsulfonyl)-2-(2H-tetrazol-5-yl)benzenesulfonamide] was tested, and the “P. aeruginosa expressing IMP-1, efflux+ (MB9798) MITC95” value [1] was 0.7813 µM, the Efflux ratio [1] was 1.00 and the pIC50 (VIM-1) was 9.51. The pIC50 (IMP-1) was 8.93, the pIC50 (NDM-1) was 9.75 and the “P. aeruginosa expressing IMP-1, efflux− (MB9799) MITC95” value [2] was 0.7813 µM. For the same molecule, the “Klebsiella pneumoniae expressing VIM-1 (IHMA599644) MITC95” value [3] was 1.563 µM, the “Serratia marcescens expressing IMP-1 (CL5741) MITC95” value [4] was 1.563 µM and the “Escherichia coli expressing NDM-1 (CLB30016) MITC95” value [5] was 0.5859 µM.
In the case of Nc1nc2c(-c3ccc(S(=O)(=O)C4CNC4)c(S(N)(=O)=O)c3-c3nn[nH]n3)cccc2[nH]1 [Example 43, 3-(2-amino-1H-benzo[d]imidazol-4-yl)-6-(azetidin-3-ylsulfonyl)-2-(2H-tetrazol-5-yl)benzenesulfonamide], the “P. aeruginosa expressing IMP-1, efflux+ (MB9798) MITC95” value [1] was 0.6081 µM, the Efflux ratio [1] was 0.95 and the pIC50 (VIM-1) was 9.59. The pIC50 (IMP-1) was 9.08, the pIC50 (NDM-1) was 10.08 and the “P. aeruginosa expressing IMP-1, efflux− (MB9799) MITC95” value [2] was 0.6406 µM. The “Klebsiella pneumoniae expressing VIM-1 (IHMA599644) MITC95” value [3] was 1.151 µM, the “Serratia marcescens expressing IMP-1 (CL5741) MITC95” value [4] was 0.7982 µM and the “Escherichia coli expressing NDM-1 (CLB30016) MITC95” value [5] was 0.2902 µM.
CC(=O)N1CCC(S(=O)(=O)c2ccc(-c3cccc4nc(N)[nH]c34)c(-c3nn[nH]n3)c2S(N)(=O)=O)CC1 [Example 44, 6-(1-acetylpiperidin-4-ylsulfonyl)-3-(2-amino-3H-benzo[d]imidazol-4-yl)-2-(2H-tetrazol-5-yl)benzenesulfonamide] was tested, and the “P. aeruginosa expressing IMP-1, efflux+ (MB9798) MITC95” value [1] was 100 µM, the Efflux ratio [1] was 32.00 and the pIC50 (VIM-1) was 9.52. For the same molecule, the pIC50 (IMP-1) was 8.70, the pIC50 (NDM-1) was 9.35 and the “P. aeruginosa expressing IMP-1, efflux− (MB9799) MITC95” value [2] was 3.125 µM. The “Klebsiella pneumoniae expressing VIM-1 (IHMA599644) MITC95” value [3] was 25 µM, the “Serratia marcescens expressing IMP-1 (CL5741) MITC95” value [4] was 6.25 µM and the “Escherichia coli expressing NDM-1 (CLB30016) MITC95” value [5] was 6.25 µM.
CS(=O)(=O)N1CCC(S(=O)(=O)c2ccc(-c3cccc4nc(N)[nH]c34)c(-c3nn[nH]n3)c2S(N)(=O)=O)CC1 [Example 45, 3-(2-amino-3H-benzo[d]imidazol-4-yl)-6-(1-(methylsulfonyl)piperidin-4-ylsulfonyl)-2-(2H-tetrazol-5-yl)benzenesulfonamide] was tested, and the “P. aeruginosa expressing IMP-1, efflux+ (MB9798) MITC95” value [1] was 50 µM, the Efflux ratio [1] was 16.00 and the pIC50 (VIM-1) was 9.87. The pIC50 (IMP-1) was 8.77, the pIC50 (NDM-1) was 9.54 and the “P. aeruginosa expressing IMP-1, efflux− (MB9799) MITC95” value [2] was 3.125 µM. The “Klebsiella pneumoniae expressing VIM-1 (IHMA599644) MITC95” value [3] was 6.25 µM, the “Serratia marcescens expressing IMP-1 (CL5741) MITC95” value [4] was 6.25 µM and the “Escherichia coli expressing NDM-1 (CLB30016) MITC95” value [5] was 25 µM.
CCOC(=O)N1CCC(S(=O)(=O)c2ccc(-c3cccc4nc(N)[nH]c34)c(-c3nn[nH]n3)c2S(N)(=O)=O)CC1 [Example 46, ethyl 4-(4-(2-amino-3H-benzo[d]imidazol-4-yl)-2-sulfamoyl-3-(2H-tetrazol-5-yl)phenylsulfonyl)piperidine-1-carboxylate] was tested, and the “P. aeruginosa expressing IMP-1, efflux+ (MB9798) MITC95” value [1] was 200 µM, the Efflux ratio [1] was 64.00 and the pIC50 (VIM-1) was 9.42. The pIC50 (IMP-1) was 8.67, the pIC50 (NDM-1) was 9.35 and the “P. aeruginosa expressing IMP-1, efflux− (MB9799) MITC95” value [2] was 3.125 µM. The “Klebsiella pneumoniae expressing VIM-1 (IHMA599644) MITC95” value [3] was 25 µM, the “Serratia marcescens expressing IMP-1 (CL5741) MITC95” value [4] was 25 µM and the “Escherichia coli expressing NDM-1 (CLB30016) MITC95” value [5] was 6.25 µM.
For Nc1nc2cccc(-c3ccc(S(=O)(=O)C4CCN(CCO)CC4)c(S(N)(=O)=O)c3-c3nn[nH]n3)c2[nH]1 [Example 47, 3-(2-amino-3H-benzo[d]imidazol-4-yl)-6-(1-(2-hydroxyethyl)piperidin-4-ylsulfonyl)-2-(2H-tetrazol-5-yl)benzenesulfonamide], the “P. aeruginosa expressing IMP-1, efflux+ (MB9798) MITC95” value [1] was 6.25 µM, the Efflux ratio [1] was 4.00 and the pIC50 (VIM-1) was 9.44. The pIC50 (IMP-1) was 9.07, the pIC50 (NDM-1) was 9.67 and the “P. aeruginosa expressing IMP-1, efflux− (MB9799) MITC95” value [2] was 1.563 µM. The “Klebsiella pneumoniae expressing VIM-1 (IHMA599644) MITC95” value [3] was 3.125 µM, the “Serratia marcescens expressing IMP-1 (CL5741) MITC95” value [4] was 3.125 µM and the “Escherichia coli expressing NDM-1 (CLB30016) MITC95” value [5] was 1.563 µM.
For NCCN1CCC(S(=O)(=O)c2ccc(-c3cccc4nc(N)[nH]c34)c(-c3nn[nH]n3)c2S(N)(=O)=O)CC1 [Example 48, 3-(2-amino-3H-benzo[d]imidazol-4-yl)-6-(1-(2-aminoethyl)piperidin-4-ylsulfonyl)-2-(2H-tetrazol-5-yl)benzenesulfonamide], the “P. aeruginosa expressing IMP-1, efflux+ (MB9798) MITC95” value [1] was 3.125 µM, the Efflux ratio [1] was 2.00 and the pIC50 (VIM-1) was 9.39. The pIC50 (IMP-1) was 8.64, the pIC50 (NDM-1) was 9.41 and the “P. aeruginosa expressing IMP-1, efflux− (MB9799) MITC95” value [2] was 1.563 µM. The “Klebsiella pneumoniae expressing VIM-1 (IHMA599644) MITC95” value [3] was 3.125 µM, the “Serratia marcescens expressing IMP-1 (CL5741) MITC95” value [4] was 3.125 µM and the “Escherichia coli expressing NDM-1 (CLB30016) MITC95” value [5] was 1.563 µM.
With NC(=O)N1CCC(S(=O)(=O)c2ccc(-c3cccc4nc(N)[nH]c34)c(-c3nn[nH]n3)c2S(N)(=O)=O)CC1 [Example 49, 4-(4-(2-amino-3H-benzo[d]imidazol-4-yl)-2-sulfamoyl-3-(2H-tetrazol-5-yl)phenylsulfonyl)piperidine-1-carboxamide] the “P. aeruginosa expressing IMP-1, efflux+ (MB9798) MITC95” value [1] was 12.5 µM, the Efflux ratio [1] was 4.00 and the pIC50 (VIM-1) was 9.51. The pIC50 (IMP-1) was 8.86, the pIC50 (NDM-1) was 9.56 and the “P. aeruginosa expressing IMP-1, efflux− (MB9799) MITC95” value [2] was 3.125 µM. For the same molecule, the “Klebsiella pneumoniae expressing VIM-1 (IHMA599644) MITC95” value [3] was 6.25 µM, the “Serratia marcescens expressing IMP-1 (CL5741) MITC95” value [4] was 6.25 µM and the “Escherichia coli expressing NDM-1 (CLB30016) MITC95” value [5] was 6.25 µM.
